1 compound from US12023317B2, “Composition for ameliorating psoriasis comprising cimicifugolide a as active ingredient” (KOREA INSTITUTE OF SCIENCE AND TECHNOLOGY, priority 2021, dated 2024) can be followed below.

Molecules are shown by their SMILES.

This experiment relates to psoriasis. The experiment in a line: psoriasis-induced group: skin moisture, damaged area, skin morphology, inflammation. It is filed as in vivo. The following applies: when cimicifugolide A is administered.

For `CC(C)=CC1OC(=O)/C(=C\CO)C1O` (stereo not shown) [cimicifugolide A, (Z)-4-Hydroxy-3-(2-hydroxyethylidene)-5-(2-methylprop-1-en-1-yl)dihydrofuran-2(3H)-one], the inflammation expression entry was “inhibition”, the moisture content result is on record as “increased”, the moisture loss result is “decreased” and the skin morphological changes result is “inhibition”.
